Assay results as given in US11504425B2, “Amphiphilic oligodeoxynucleotide conjugates as adjuvant enhancers” (WAYNE STATE UNIVERSITY, priority 2019, dated 2022).

Tests used:
Assay type in all cases: cell-based
mouse TLR7 (mTLR7) = target: T1, mouse TLR7 (mTLR7) (Mus musculus, UniProt P58681); test: HEK mTLR7 reporter cells NF-κB/SEAP; conditions: ligands at indicated concentrations + 1 μM ODN, 24 h
T1 construct: host or cells: HEK-Blue-mTLR7 (HEK293)
T1 sequence (P58681 27-1050): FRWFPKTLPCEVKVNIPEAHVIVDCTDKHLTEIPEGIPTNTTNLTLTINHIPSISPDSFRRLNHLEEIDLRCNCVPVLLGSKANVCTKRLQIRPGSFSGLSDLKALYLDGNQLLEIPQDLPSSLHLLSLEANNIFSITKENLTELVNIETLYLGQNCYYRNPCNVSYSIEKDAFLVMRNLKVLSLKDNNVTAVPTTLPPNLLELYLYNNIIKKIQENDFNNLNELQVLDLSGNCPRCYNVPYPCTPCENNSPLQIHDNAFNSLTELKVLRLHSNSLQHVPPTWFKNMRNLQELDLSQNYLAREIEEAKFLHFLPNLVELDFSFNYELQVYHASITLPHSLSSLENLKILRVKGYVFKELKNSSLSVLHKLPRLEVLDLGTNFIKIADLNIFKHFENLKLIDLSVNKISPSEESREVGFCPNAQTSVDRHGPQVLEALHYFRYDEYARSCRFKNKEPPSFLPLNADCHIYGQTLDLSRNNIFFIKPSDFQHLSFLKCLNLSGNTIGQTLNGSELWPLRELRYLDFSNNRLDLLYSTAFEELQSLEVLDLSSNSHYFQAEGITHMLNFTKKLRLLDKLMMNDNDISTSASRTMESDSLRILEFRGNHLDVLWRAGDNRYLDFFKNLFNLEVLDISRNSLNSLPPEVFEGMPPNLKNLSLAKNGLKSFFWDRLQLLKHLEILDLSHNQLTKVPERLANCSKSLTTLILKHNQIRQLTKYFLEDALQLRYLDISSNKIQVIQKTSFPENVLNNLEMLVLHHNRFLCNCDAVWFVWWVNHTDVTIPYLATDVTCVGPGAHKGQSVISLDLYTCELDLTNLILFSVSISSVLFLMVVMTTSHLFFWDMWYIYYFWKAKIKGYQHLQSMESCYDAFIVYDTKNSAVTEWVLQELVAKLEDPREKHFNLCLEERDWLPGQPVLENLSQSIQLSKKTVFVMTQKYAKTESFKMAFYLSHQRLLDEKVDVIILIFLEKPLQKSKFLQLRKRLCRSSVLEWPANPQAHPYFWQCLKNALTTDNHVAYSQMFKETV
Method: (§1) HEK-Blue™-mTLR7, mTLR8, hTLR7, hTLR8, and RAW-Blue™ cells were purchased from InvivoGen and were used to evaluate bioactivities of lipo ODNs and TLR 7/8 ligands in vitro. All these cell lines were cultured with DMEM supplemented with 10% FBS, 1% P/S and 100 μg/mL Normocin at 37° C. with 5% CO2. […] After incubating for 24 h, SEAP levels were quantified by developing supernatants with QuantiBlue™ substrate for 1 h and reading absorption at 620 nm, following manufacturer's instructions.
Raw Blue cells which respond to both murine TLR-7 and TLR-8 are also included to assess the overall modulatory effect. half-maximal effective concentration (EC50) and potency of several classic TLR7/8 ligands were evaluated in murine TLR7 and TLR8 reporter cells.

human TLR8 (hTLR8) = target: T2, human TLR8 (hTLR8) (Homo sapiens, UniProt Q9NR97); test: HEK hTLR8 reporter cells NF-κB/SEAP; conditions: 1 μg/ml or indicated concentrations TLR8-506 + 1 μM ODN, 24 h
T2 construct: host or cells: HEK-Blue-hTLR8 (HEK293)
T2 sequence (Q9NR97 27-1041): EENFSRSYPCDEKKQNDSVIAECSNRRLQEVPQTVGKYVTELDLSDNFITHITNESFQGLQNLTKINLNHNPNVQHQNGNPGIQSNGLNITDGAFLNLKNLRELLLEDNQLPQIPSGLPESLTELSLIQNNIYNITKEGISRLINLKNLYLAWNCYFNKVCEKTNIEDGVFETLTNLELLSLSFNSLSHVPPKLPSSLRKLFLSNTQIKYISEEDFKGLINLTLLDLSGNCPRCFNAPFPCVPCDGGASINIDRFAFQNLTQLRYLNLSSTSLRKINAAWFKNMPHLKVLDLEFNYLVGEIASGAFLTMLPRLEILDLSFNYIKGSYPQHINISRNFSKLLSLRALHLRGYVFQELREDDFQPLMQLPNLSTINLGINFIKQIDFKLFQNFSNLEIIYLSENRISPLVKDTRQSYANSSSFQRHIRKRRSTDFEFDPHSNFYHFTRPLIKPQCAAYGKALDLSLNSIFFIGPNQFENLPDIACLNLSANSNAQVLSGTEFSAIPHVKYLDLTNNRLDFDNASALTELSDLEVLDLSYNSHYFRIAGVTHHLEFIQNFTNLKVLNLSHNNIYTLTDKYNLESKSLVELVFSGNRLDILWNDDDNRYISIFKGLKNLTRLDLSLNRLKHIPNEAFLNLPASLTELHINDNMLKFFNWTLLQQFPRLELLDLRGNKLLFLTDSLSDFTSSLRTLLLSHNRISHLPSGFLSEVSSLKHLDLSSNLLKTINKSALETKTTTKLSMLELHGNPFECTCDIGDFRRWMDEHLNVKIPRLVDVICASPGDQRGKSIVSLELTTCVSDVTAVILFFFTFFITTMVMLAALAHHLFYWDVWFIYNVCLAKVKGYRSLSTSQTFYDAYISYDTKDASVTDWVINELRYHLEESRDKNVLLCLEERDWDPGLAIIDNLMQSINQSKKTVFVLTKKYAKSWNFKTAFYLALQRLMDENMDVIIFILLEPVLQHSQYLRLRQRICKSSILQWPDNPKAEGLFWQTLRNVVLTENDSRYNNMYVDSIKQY
Method: as §1
HEK293 cells transfected with human TLR7 or 8 were used. The cells were stimulated with IMQ in the presence of several inhibitory oligonucleotides reported in the literature. […] In contrast, all the unmodified ODNs maintained their inhibitory function, reducing the NF-κB secretion to basal levels (FIG. 8A). We then plotted the IMQ dose response curve in human TLR-7 transfected HEK293 cells.

human PBMC = test: Cytokine secretion by human PBMC (ELISA); conditions: 24 h
Method: Whole blood was obtained from the Red Cross, where healthy volunteers had provided informed consent to donate blood. Peripheral blood mononuclear cells (PBMC) were isolated by density gradient centrifugation using Histopaque-1077 (Sigma-Aldrich). The mononuclear cells were washed twice with cold PBS (1×) and resuspended in completed RPMI-1640 supplemented with 10% FBS and 1% penicillin/streptomycin. PBMC were seeded at 2×10^6/ml in 200 μL in a 96-well plate.
Supernatants collected from splenocytes suspension or human PBMC suspension after incubation were separately analyzed for IL-6, IL-12p40, TNF-α, and IFN-α by ELISA following manufacturer's instructions.

Question: What does the source list for 5′-TTTTTTTTTTTTTTTTTTTT-3′ [T20]?
Answer: mTLR7 activation by IMQ, CL075, R848 in the presence of the ODN (mouse TLR7 (mTLR7)): suppressed the TLR-7 activation; TLR8-506 stimulation of hTLR8 cells in the presence of the ODN (human TLR8 (hTLR8)): enhanced the stimulation of TLR8-506; IFN-α production (human PBMC; CL264 + ODN): completely abrogated IFN-α production; IL-12 production (human PBMC; TLR8-506 + ODN): able to augment the IL-12 production
